The structures appear in SMILES notation.

This passage reports DC50, IC50 and Emax results from ChEMBL document CHEMBL5214967, “Natural Product-Inspired Targeted Protein Degraders: Advances and Perspectives” (J Med Chem, 2022).

Test [1] concerns the target T1, 3-hydroxy-3-methylglutaryl-coenzyme A reductase (Homo sapiens, UniProt P04035).
T1 sequence (P04035 whole entry): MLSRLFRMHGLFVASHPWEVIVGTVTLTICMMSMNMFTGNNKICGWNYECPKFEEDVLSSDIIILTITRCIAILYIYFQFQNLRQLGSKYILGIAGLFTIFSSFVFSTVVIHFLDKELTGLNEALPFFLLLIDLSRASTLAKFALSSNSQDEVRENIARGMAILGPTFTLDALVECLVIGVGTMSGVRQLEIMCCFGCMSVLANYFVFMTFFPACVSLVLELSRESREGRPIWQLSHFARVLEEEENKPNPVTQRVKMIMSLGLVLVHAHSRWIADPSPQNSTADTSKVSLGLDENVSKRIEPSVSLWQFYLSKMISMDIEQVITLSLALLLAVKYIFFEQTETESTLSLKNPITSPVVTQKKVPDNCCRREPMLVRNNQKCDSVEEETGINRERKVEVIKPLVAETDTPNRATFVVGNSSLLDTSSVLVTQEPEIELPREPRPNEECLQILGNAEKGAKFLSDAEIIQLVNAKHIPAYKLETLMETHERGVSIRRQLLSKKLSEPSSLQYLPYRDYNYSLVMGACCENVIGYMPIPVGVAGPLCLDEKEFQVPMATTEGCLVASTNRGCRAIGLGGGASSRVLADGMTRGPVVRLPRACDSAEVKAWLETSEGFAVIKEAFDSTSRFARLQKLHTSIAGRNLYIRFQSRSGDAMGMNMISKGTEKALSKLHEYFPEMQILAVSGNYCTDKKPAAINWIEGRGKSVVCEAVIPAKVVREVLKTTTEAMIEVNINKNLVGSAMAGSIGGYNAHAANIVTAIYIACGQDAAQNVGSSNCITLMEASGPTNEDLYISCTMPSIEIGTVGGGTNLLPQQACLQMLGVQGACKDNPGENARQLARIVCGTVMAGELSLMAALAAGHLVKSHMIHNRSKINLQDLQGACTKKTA
In words: Degradation of HMGCR (unknown origin).

The nature of test [2]: Degradation of ER in human MCF7 cells. Type of test: cell-based.
In another test the target is Protein cereblon/Basigin (Homo sapiens, UniProt P35613+Q96SW2). In words: PROTAC activity at CRBN/CD147 (unknown origin) assessed as degradation of CD147. Type of test: protein assay.
Chain of Protein cereblon/Basigin (P35613 whole entry): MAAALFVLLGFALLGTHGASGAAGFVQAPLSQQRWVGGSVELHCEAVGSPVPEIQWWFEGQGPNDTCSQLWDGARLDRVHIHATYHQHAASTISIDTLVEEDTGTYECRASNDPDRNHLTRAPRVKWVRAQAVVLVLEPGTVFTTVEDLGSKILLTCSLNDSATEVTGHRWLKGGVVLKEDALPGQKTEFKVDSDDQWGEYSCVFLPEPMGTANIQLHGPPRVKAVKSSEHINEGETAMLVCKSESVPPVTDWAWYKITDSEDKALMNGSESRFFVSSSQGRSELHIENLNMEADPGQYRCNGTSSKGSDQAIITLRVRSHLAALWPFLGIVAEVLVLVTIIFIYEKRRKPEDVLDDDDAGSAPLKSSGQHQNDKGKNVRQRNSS
Chain of Protein cereblon/Basigin (Q96SW2 whole entry): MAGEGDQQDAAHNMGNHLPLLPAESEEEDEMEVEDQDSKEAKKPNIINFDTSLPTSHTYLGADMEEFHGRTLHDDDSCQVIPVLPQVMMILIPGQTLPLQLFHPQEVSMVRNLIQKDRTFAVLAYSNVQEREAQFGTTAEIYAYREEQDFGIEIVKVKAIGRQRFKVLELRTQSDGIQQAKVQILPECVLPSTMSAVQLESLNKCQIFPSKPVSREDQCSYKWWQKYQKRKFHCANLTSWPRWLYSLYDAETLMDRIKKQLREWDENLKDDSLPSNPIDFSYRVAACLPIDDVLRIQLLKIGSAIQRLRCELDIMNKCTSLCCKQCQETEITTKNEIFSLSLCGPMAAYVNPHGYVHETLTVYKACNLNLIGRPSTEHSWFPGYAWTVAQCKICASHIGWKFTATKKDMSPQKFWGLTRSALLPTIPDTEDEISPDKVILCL
In the next test the test system is SK-MEL-5. Nature of the test: In vivo antitumor activity against human SK-MEL-5 cells xenografted in BALB/c nude mouse administered intraperitoneally every 2 days for 17 days. Type of test: functional, organism-based. On the technique in general: A xenograft is tissue or cells of one species grown in another, often human tumour cells in immunodeficient mice.
Test [3] deals with T1, 3-hydroxy-3-methylglutaryl-coenzyme A reductase. Nature of the test: Inhibition of HMGCR (unknown origin).
Test [4] deals with von Hippel-Lindau disease tumor suppressor/3-hydroxy-3-methylglutaryl-coenzyme A reductase (Homo sapiens, UniProt P04035+P40337). Nature of the test: PROTAC activity at VHL/HMGCR in human HepG2 cells assessed as degradation of HMGCR measured at 1 uM after 16 hrs relative to control. Type of test: cell-based.
Chain of von Hippel-Lindau disease tumor suppressor/3-hydroxy-3-methylglutaryl-coenzyme A reductase (P40337 whole entry, looked up, one chain of several): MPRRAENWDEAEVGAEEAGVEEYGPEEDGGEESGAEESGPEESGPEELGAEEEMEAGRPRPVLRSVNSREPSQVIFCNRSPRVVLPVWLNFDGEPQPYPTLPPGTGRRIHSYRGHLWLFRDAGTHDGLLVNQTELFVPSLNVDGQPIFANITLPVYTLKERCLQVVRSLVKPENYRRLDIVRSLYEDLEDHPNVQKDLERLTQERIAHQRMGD
The target of test [5] is Cyclin-dependent kinase 9 (Homo sapiens, UniProt P50750). In words: Inhibition of CDK9 (unknown origin) incubated for 1 hr by fluorescent polarisation based assay.
Chain of Cyclin-dependent kinase 9 (P50750 whole entry): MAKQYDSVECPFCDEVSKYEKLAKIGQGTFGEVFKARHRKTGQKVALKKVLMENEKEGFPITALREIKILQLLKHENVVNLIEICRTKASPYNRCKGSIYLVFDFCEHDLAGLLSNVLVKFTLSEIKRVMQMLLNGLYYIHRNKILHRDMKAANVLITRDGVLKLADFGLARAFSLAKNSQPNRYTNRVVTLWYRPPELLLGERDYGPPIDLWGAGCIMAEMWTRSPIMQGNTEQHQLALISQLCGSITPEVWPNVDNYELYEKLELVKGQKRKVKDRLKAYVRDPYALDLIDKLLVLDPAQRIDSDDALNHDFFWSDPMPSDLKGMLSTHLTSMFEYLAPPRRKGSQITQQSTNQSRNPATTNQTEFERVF
For test [6], the system named is MCF7. Nature of the test: cells. The conditions noted are these: Homo sapiens, MCF7, 72 h.
Description: Antiproliferative activity against human MCF7 cells incubated for 72 hrs by MTT assay
The test system of a further test is SK-BR-3. In words: Cytotoxicity against human SK-BR-3 cells by inducing cell cycle arrest incubated for 30 mins measured by FacScallibur flow cytometric analysis. The test is classed as functional, cell-based. The following applies: SK-BR-3, 0.5 h.
The target in test [7] is von Hippel-Lindau disease tumor suppressor/Estrogen receptor (Homo sapiens, UniProt P03372+P40337). Nature of the test: PROTAC activity at VHL/ERalpha in human MCF7 cells assessed as degradation of ERalpha. Type of test: cell-based.
Chain of von Hippel-Lindau disease tumor suppressor/Estrogen receptor (P03372 whole entry): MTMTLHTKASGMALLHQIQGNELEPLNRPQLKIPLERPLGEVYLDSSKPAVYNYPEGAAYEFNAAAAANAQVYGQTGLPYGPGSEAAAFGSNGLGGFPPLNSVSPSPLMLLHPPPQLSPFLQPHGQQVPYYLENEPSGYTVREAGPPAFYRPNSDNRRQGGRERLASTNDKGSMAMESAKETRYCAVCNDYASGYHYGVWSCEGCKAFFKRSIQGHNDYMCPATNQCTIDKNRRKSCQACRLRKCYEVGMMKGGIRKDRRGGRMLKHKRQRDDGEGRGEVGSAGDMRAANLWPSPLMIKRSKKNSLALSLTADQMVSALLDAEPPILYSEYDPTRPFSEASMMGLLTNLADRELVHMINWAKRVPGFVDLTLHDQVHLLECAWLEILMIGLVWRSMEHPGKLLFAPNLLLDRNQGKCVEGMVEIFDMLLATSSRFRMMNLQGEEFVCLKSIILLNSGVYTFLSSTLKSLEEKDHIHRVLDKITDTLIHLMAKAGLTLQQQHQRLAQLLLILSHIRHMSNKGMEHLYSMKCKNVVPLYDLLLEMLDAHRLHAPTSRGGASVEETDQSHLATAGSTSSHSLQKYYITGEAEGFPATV
Chain of von Hippel-Lindau disease tumor suppressor/Estrogen receptor (P40337 whole entry): as the sequence (P40337 whole entry, looked up, one chain of several) above
Test [8] concerns MCF7. In words: Cytotoxicity against human MCF7 cells by inducing cell cycle arrest incubated for 30 mins measured by FacScallibur flow cytometric analysis. Type of test: functional, cell-based. The following applies: MCF7, 0.5 h. Background: A flow cytometer gives signals particle by particle.
The target of test [9] is von Hippel-Lindau disease tumor suppressor/G-protein coupled estrogen receptor 1 (Homo sapiens, UniProt Q99527+P40337). In words: PROTAC activity at VHL/GPER (unknown origin) assessed as degradation of GPER. The test is classed as protein assay.
Chain of von Hippel-Lindau disease tumor suppressor/G-protein coupled estrogen receptor 1 (Q99527 whole entry): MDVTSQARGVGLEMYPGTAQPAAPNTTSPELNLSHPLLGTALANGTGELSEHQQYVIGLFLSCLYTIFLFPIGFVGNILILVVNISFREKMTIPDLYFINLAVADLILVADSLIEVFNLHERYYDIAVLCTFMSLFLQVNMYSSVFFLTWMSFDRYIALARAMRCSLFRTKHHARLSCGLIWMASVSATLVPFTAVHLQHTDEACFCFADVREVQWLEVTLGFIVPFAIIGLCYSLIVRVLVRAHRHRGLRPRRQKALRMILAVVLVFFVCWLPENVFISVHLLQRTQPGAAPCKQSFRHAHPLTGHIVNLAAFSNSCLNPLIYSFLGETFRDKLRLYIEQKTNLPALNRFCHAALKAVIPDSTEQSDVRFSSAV
Chain of von Hippel-Lindau disease tumor suppressor/G-protein coupled estrogen receptor 1 (P40337 whole entry): as the sequence (P40337 whole entry, looked up, one chain of several) above
In a further test the test system is HT-29. In words: Cytotoxicity against human HT-29 cells incubated for 72 hrs by CCK-8 assay. The conditions noted are these: HT-29, 72 h. Type of test: functional, cell-based.
In test [10] the test system is HepG2. In words: Cytotoxicity against human HepG2 cells incubated for 24 hrs by MTT assay. The test is classed as functional, cell-based. The conditions noted are these: HepG2, 24 h. On the technique in general: Formazan colour is commonly taken as a measure of viable cells.
Test [11] deals with HepG2. Nature of the test: Cytotoxicity against human HepG2 cells measured after 24 hrs by MTT assay. The conditions noted are these: HepG2, 24 h. The test is classed as functional, cell-based.
For test [12], the system named is A549. In words: Cytotoxicity against human A549 cells measured after 24 hrs by MTT assay. The test is classed as functional, cell-based. The conditions noted are these: A549, 24 h.
Test [13] addresses Protein cereblon/E3 ubiquitin-protein ligase Mdm2 (Homo sapiens) (UniProt Q00987+Q96SW2). Nature of the test: PROTAC activity at CRBN/MDM2 (unknown origin) assessed as degradation of MDM2 relative to control. The test is classed as protein assay.
Test [14] has as its system A549. Nature of the test: Cytotoxicity against human A549 cells incubated for 24 hrs by MTT assay. The test is classed as functional, cell-based. The conditions noted are these: A549, 24 h.
Test [15] relates to Huh-7. Nature of the test: Cytotoxicity against human Huh-7 cells measured after 24 hrs by MTT assay. The test is classed as functional, cell-based. The following applies: Huh-7, 24 h.
Test [16] concerns Huh-7. In words: Cytotoxicity against human Huh-7 cells incubated for 24 hrs by MTT assay. The conditions noted are these: Huh-7, 24 h. The test is classed as functional, cell-based.

Chain of Protein cereblon/E3 ubiquitin-protein ligase Mdm2 (Homo sapiens) (Q00987 whole entry, looked up): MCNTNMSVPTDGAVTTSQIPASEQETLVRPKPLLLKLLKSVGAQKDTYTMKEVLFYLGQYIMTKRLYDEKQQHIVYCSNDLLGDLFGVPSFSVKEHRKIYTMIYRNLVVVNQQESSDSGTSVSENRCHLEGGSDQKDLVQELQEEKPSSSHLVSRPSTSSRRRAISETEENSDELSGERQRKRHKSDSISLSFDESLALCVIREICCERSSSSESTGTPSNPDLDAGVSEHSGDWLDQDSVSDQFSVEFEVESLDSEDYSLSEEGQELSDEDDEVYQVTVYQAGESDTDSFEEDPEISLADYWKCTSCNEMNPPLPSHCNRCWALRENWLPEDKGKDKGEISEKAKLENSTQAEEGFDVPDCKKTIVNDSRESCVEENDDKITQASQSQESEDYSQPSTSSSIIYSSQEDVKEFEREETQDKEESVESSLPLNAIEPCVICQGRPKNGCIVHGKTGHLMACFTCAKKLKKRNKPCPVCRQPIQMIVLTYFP
Chain of Protein cereblon/E3 ubiquitin-protein ligase Mdm2 (Homo sapiens) (Q96SW2 whole entry, looked up): as the sequence (Q96SW2 whole entry) above

`CC(=O)N1N=CC2C[C@@]3(C)C(=CC[C@H]4[C@@H]5CC[C@H]([C@H](C)CCC(=O)N6CCOCC6)[C@@]5(C)CC[C@@H]43)C(C)(C)C21` (some centres undefined) had a half-maximal degradation concentration (DC50) in test [1] of 220 nM.

On to `CC1=CC(=O)[C@H]2/C(C=O)=C\C[C@H]3[C@@H]([C@@H](C)/C=C\C=C/C(=O)OCCOCCOCCOC(=O)CC45CC6CC(CC(C6)C4)C5)CC[C@]3(C)C[C@H]12`, for which, in [2], half-maximal degradation (DC50) was put at 1000 nM.

Turning to `COC(=O)C1=CC[C@]23CC[C@H]([C@@]2(OC(C)=O)CC1)[C@](C)(/C=C/C=C(\C)C(=O)NCCNc1cccc2c1C(=O)N(C1CCC(=O)NC1=O)C2=O)OC3=O` (some centres undefined), the IC50 at Protein cereblon/Basigin was found to be 6720 nM; in the test on SK-MEL-5, 6230 nM.

Take `Cc1ncsc1-c1ccc(CNC(=O)[C@@H]2C[C@@H](O)CN2C(=O)[C@H](NC(=O)CCCCCCCCCCNC(=O)OC2C[C@@H](C)C=C3C=C[C@H](C)[C@H](CC[C@@H]4C[C@@H](O)CC(=O)O4)[C@H]32)C(C)(C)C)cc1` (some centres undefined): in test [3], the IC50 stood at 1300 nM. Also, the Emax in test [4] worked out at 56%.

As to `O=C1CCC(N2C(=O)c3cccc(NC(=O)CCCCCCCn4cc(COc5c(O)cc(O)c6c(=O)cc(-c7ccccc7)oc56)nn4)c3C2=O)C(=O)N1` (centres undefined), the IC50 in [5] worked out at 523 nM; in the test with MCF7 [6], 17 nM.

In the case of `Cc1ncsc1-c1ccc(CNC(=O)[C@@H]2C[C@@H](O)CN2C(=O)[C@@H](NC(=O)COCCOCCOCCOCC(=O)O[C@H]2CC[C@H]3[C@@H]4CCc5cc(O)ccc5[C@H]4CC[C@]23C)C(C)(C)C)cc1`, the IC50 in the test with SK-BR-3 was 10900 nM; in the test with MCF7 [8], 9000 nM. Further, the DC50 in test [7] was determined as 10000 nM; in test [9], 100000 nM.

In the test on HT-29, `Cc1ncsc1-c1ccc([C@H](C)NC(=O)[C@@H]2CC(OC(=O)CCCCn3cc(CNC(=O)CC[C@H](NC(=O)c4ccc(NCc5cnc6[nH]c(N)nc(=O)c6n5)cc4)C(=O)O)nn3)CN2C(=O)[C@H](NC(=O)CCCCCCCCCCNCCCONC(=O)c2ccc(F)c(F)c2Nc2ccc(I)cc2F)C(C)(C)C)cc1` (some centres undefined) displayed an IC50 of 436 nM.

In the case of `Cc1ncsc1-c1ccc(CNC(=O)[C@@H]2C[C@@H](O)CN2C(=O)[C@@H](NC(=O)COCCOCCOCCOCC(=O)NCCOCCOCCOCCOCCOCCOCCOCCOCCC(=O)O[C@H]2CC[C@H]3[C@@H]4CCc5cc(O)ccc5[C@H]4CC[C@]23C)C(C)(C)C)cc1`, the IC50 with SK-BR-3 turned out to be 11100 nM; in the test with MCF7 [8] it was 17000 nM. Besides, the DC50 amounted to 10000 nM in test [7] and 100000 nM in test [9].

`C[C@H]1[C@H](C)CCC2(C(=O)NCCOCCOCCOCCNc3cccc4c3C(=O)N(C3CCC(=O)NC3=O)C4=O)CC[C@]3(C)C(=CC[C@@H]4[C@@]5(C)CCC(O)C(C)(C)[C@@H]5CC[C@]43C)[C@H]12` (some centres undefined): the 50% inhibitory concentration (IC50) in the test on HepG2 [10] stood at 230 nM; in the test on HepG2 [11], 380 nM; in the test on A549 [12] it was 230 nM; with A549 [14], 230 nM; in the test on Huh-7 [15] it was 390 nM; in the test with Huh-7 [16], 230 nM. In addition, the Emax in [13] was determined as 75%.

Broadly, the DC50 is the concentration at which degradation of the target reaches its halfway point. For orientation: IC50 means the concentration at which inhibition is half-maximal. Broadly, the Emax is the maximal effect, on the per cent scale that the assay sets.
